Source: patent publication US9868707B2, “Small molecule agonists of neurotensin receptor 1” (SANFORD-BURNHAM MEDICAL RESEARCH INSTITUTE, priority 2012, dated 2018)
Several values for one entry are separate records, joined by “and”; a condition that tells them apart may be missing. Equal values may be shown once.

Assays:
[1] = Metabolic stability in mouse hepatic microsomes; assay type: in vitro ADME
Procedure: Hepatic metabolic stability was determined using established protocols (Di, L., Kerns, E. H., Hong, Y., Kleintop, T. A., McConnell, O. J., and Huryn, D. M. 2003. Optimization of a higher throughput microsomal stability screening assay for profiling drug discovery candidates. J Biomol Screen 8:453-462). Briefly, the compound (1.0 and 10.0 μM) was preincubated for 10 min at 37° C. in potassium phosphate buffer (pH 7.4) together with 0.5 mg/mL mouse or human hepatic microsomes (Xenotech, Kansas City). The cofactor mixture comprising NADP, G6P, and G6P-DH (BD Biosciences) was added, and aliquots were taken after 0 and 60 min. Samples were analyzed on an Acquity UPLC, coupled with a sample organizer, and interfaced with a triple quadrupole ABI 4000 LC/MS/MS using the methodology described above. The percentage of the compound remaining after a 60 min incubation period was calculated according the following equation: [(area at time 60 min)/(area at time 0 min)]×100%.

[2] = test system: Fa2N-4 immortalized human hepatocytes; assay: Cell viability with ATP-lite (hepatic toxicity); assay type: cell-based
Procedure: Hepatic toxicity of compounds was determined with Fa2N-4 immortalized human hepatocytes using the ATP-lite 1-step assay (Perkin Elmer). assay according to the manufacturer's instructions. Fa2N-4 cells (XenoTech, Kansas City, Kans.) were seeded at 50,000 cells/well, and incubated with a range of concentrations of the test compound (0.01 μM-50 μM) in MFE support, media for 24 hrs at 37° C., 5% CO2. At the end of the experiment, cell viability was determined by cellular ATP levels using the ATP-lite kit according to the manufacturer's instructions Luminescence was measured on the Infinite M200 plate reader (Tecan US).

signal = assay: Panlabs/Ricerca lead profiling panel, signal; assay type: binding; conditions: @ 10 μM
Description: (§1) However, these activities in in vitro binding assays may not translate into functional modulation of these receptors.

[3] = test system: GPCR binding assay panel (˜40 receptors); assay: PDSP GPCR binding assay panel
Description: as §1

SMILES: COc1cc2nc(C3CC3)nc(N3CCN(c4ccccc4OC)CC3)c2cc1OC [Compound 315, 2-cyclopropyl-6,7-dimethoxy-4-(4-(2-methoxyphenyl)piperazin-1-yl)quinazoline]
- Hepatic Microsome Stability (% Remaining at 1 hr) [1]: 0.16%
- metabolism in vitro with liver homogenates [1]: metabolized rapidly
- window for toxicity towards human hepatocytes [2]: > 15 fold
- CC50 ([2]; 24 hrs, read-out: Toxicity Towards Fa2N-4 Immortalized Human Hepatocytes LC50): 30 µM and 29.6 µM
- activity at signal (signal): 69%
- promiscuity in GPCR binding assay panel ([3]; at 10 μM, ˜40 receptors tested): moderately promiscuous
- Ki ([3]; on 7 receptors, read-out: Kis in GPCR binding assay panel): < 10 µM
